Each compound was assayed against T1, BTK enzyme (hBTK, full-length recombinant) (Homo sapiens (Human), UniProt Q06187) (assay: Btk enzyme activity assay, Method B: LANCE TR-FRET). Conditions: 25 μM ATP, 60 minute compound & enzyme incubation.
Type: biochemical
Experimental: Also BTK enzymatic activity was determined with the LANCE (Lanthanide Chelate Excite) TR-FRET (Time-resolved fluorescence resonance energy transfer) assay. […] The final reaction in each well of 10 μL consists of 100 pM hBTK, 2 μM biotin-A5-peptide, and 25 μM ATP. Phosphorylation reactions were allowed to proceed for 120 minutes. […] After 60 minutes incubation with detection reagents, reaction plates were read on a PerkinElmer EnVision plate reader using standard TR-FRET protocol. Briefly, excitation of donor molecules (Eu-chelate:anti-phospho-antibody) with a laser light source at 337 nm produces energy that can be transferred to Dylight-650 acceptor molecules if this donor:acceptor pair is within close proximity. Fluorescence intensity at both 665 nm (acceptor) and 615 nm (donor) are measured and a TR-FRET ratio calculated for each well (acceptor intensity/donor intensity). IC50 values were determined by 4 parameter robust fit of TR-FRET ratio values vs. (Log10) compound concentrations. BTK enzymatic activity was determined with the LANCE (Lanthanide Chelate Excite) TR-FRET (Time-resolved fluorescence resonance energy transfer) assay. […] The final reaction in each well of 10 μL consists of 50 pM hBTK, 2 μM biotin-A5-peptide, and 25 μM ATP. Phosphorylation reactions were allowed to proceed for 120 minutes. […] After 60 minutes incubation with detection reagents, reaction plates were read on a PerkinElmer EnVision plate reader using standard TR-FRET protocol. Briefly, excitation of donor molecules (Eu-chelate:anti-phospho-antibody) with a laser light source at 337 nm produces energy that can be transferred to Dylight-650 acceptor molecules if this donor:acceptor pair is within close proximity. Fluorescence intensity at both 665 nm (acceptor) and 615 nm (donor) are measured and a TR-FRET ratio calculated for each well (acceptor intensity/donor intensity). IC50 values were determined by 4 parameter robust fit of TR-FRET ratio values vs. (Log10) compound concentrations.

T1 sequence (Q06187 whole entry): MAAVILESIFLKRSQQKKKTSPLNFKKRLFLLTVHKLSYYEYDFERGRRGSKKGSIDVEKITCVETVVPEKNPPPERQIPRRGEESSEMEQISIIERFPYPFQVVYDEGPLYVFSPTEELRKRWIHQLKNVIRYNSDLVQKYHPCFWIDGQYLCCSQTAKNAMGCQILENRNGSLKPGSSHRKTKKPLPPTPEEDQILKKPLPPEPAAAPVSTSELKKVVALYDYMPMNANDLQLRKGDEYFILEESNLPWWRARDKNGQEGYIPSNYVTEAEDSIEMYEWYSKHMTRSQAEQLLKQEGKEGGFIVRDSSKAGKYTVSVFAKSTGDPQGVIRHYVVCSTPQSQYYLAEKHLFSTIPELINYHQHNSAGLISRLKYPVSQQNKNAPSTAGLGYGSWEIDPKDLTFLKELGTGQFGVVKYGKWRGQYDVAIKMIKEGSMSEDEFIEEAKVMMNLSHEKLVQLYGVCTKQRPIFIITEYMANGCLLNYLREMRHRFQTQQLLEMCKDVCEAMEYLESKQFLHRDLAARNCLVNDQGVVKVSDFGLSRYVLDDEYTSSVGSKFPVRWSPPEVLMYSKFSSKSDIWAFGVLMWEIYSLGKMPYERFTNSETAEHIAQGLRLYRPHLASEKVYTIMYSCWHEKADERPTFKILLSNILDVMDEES

Row | Structure (SMILES) | IC50 [nM]
1 | Cn1cc2c(n1)CCC[C@@H]2n1nc(-c2ccc(C(=O)Nc3cc(C(F)(F)F)ccn3)cc2)c2c(N)ncnc21 [Example 10, (S)-4-(4-amino-1-(2-methyl-4,5,6,7-tetrahydro-2H-indazol-4-yl)-1H-pyrazolo[3,4-d]pyrimidin-3-yl)-N-(4-(trifluoromethyl)pyridin-2-yl)benzamide] | 83
2 | CC(C)Oc1ccnc(NC(=O)c2ccc(-c3nc(N4CCn5c(nnc5C(F)(F)F)C4)n4ccnc(N)c34)cc2)c1 [Example 25, 4-(8-amino-3-(3-(trifluoromethyl)-5,6-dihydro-[1,2,4]triazolo[4,3-a]pyrazin-7(8H)-yl)imidazo[1,5-a]pyrazin-1-yl)-N-(4-isopropoxypyridin-2-yl)benzamide] | 43
3 | CCn1cc2c(n1)CCC[C@H]2n1nc(-c2ccc(C(=O)Nc3cc(C(F)(F)F)ccn3)cc2)c2c(N)ncnc21 [Example 12, (R)-4-(4-amino-1-(2-ethyl-4,5,6,7-tetrahydro-2H-indazol-4-yl)-1H-pyrazolo[3,4-d]pyrimidin-3-yl)-N-(4-(trifluoromethyl)pyridin-2-yl)benzamide] | 13
4 | Nc1ncnc2c1c(-c1ccc(C(=O)Nc3cc(C(F)(F)F)ccn3)cc1)nn2[C@H]1CCCc2[nH]ncc21 [Example 6, (S)-4-(4-amino-1-(4,5,6,7-tetrahydro-1H-indazol-4-yl)-1H-pyrazolo[3,4-d]pyrimidin-3-yl)-N-(4-(trifluoromethyl)pyridin-2-yl)benzamide] | 60
5 | CCn1cc2c(n1)CCC[C@@H]2n1nc(-c2ccc(C(=O)Nc3cc(C(F)(F)F)ccn3)cc2)c2c(N)ncnc21 [Example 14, (S)-4-(4-amino-1-(2-ethyl-4,5,6,7-tetrahydro-2H-indazol-4-yl)-1H-pyrazolo[3,4-d]pyrimidin-3-yl)-N-(4-(trifluoromethyl)pyridin-2-yl)benzamide] | 54

The remaining lines, values ahead:

Row | IC50 [nM] | Structure (SMILES)
6 | 5.9 | CCn1ncc2c1CCC[C@@H]2n1nc(-c2ccc(C(=O)Nc3cc(C(F)(F)F)ccn3)cc2)c2c(N)ncnc21 [Example 13, (S)-4-(4-amino-1-(1-ethyl-4,5,6,7-tetrahydro-1H-indazol-4-yl)-1H-pyrazolo[3,4-d]pyrimidin-3-yl)-N-(4-(trifluoromethyl)pyridin-2-yl)benzamide]
7 | 2 | Cn1ncc2c1CCC[C@]2(O)c1nc(-c2ccc(C(=O)Nc3cc(C(F)(F)F)ccn3)cc2)c2c(N)nccn12 [Example 3, (R)-4-(8-amino-3-(4-hydroxy-1-methyl-4,5,6,7-tetrahydro-1H-indazol-4-yl)imidazo[1,5-a]pyrazin-1-yl)-N-(4-(trifluoromethyl)pyridin-2-yl)benzamide]
8 | 5.9 | Cn1ncc2c1CCC[C@H]2n1nc(-c2ccc(C(=O)Nc3cc(C(F)(F)F)ccn3)cc2)c2c(N)ncnc21 [Example 7, (R)-4-(4-amino-1-(1-methyl-4,5,6,7-tetrahydro-1H-indazol-4-yl)-1H-pyrazolo[3,4-d]pyrimidin-3-yl)-N-(4-(trifluoromethyl)pyridin-2-yl)benzamide]
9 | 0.33 | Cn1ncc2c1CCC[C@@]2(O)c1nc(-c2ccc(C(=O)Nc3cc(C(F)(F)F)ccn3)cc2)c2c(N)nccn12 [Example 2, (S)-4-(8-amino-3-(4-hydroxy-1-methyl-4,5,6,7-tetrahydro-1H-indazol-4-yl)imidazo[1,5-a]pyrazin-1-yl)-N-(4-(trifluoromethyl)pyridin-2-yl)benzamide]
10 | 2.1 | Nc1ncnc2c1c(-c1ccc(C(=O)Nc3cc(C(F)(F)F)ccn3)cc1)nn2[C@H]1CCCc2c1cnn2CCO [Example 17, (S)-4-(4-amino-1-(1-(2-hydroxyethyl)-4,5,6,7-tetrahydro-1H-indazol-4-yl)-1H-pyrazolo[3,4-d]pyrimidin-3-yl)-N-(4-(trifluoromethyl)pyridin-2-yl)benzamide]
11 | 0.45 | Nc1ncnc2c1c(-c1ccc(C(=O)Nc3cc(C(F)(F)F)ccn3)cc1)nn2[C@@H]1CCCc2nn(CCO)cc21 [Example 16, (R)-4-(4-amino-1-(2-(2-hydroxyethyl)-4,5,6,7-tetrahydro-2H-indazol-4-yl)-1H-pyrazolo[3,4-d]pyrimidin-3-yl)-N-(4-(trifluoromethyl)pyridin-2-yl)benzamide]
12 | 1.3 | Nc1ncnc2c1c(-c1ccc(C(=O)Nc3cc(C(F)(F)F)ccn3)cc1)nn2[C@H]1CCCc2nn(CCO)cc21 [Example 18, (S)-4-(4-amino-1-(2-(2-hydroxyethyl)-4,5,6,7-tetrahydro-2H-indazol-4-yl)-1H-pyrazolo[3,4-d]pyrimidin-3-yl)-N-(4-(trifluoromethyl)pyridin-2-yl)benzamide]

What follows are compounds tested against T1, BTK enzyme (hBTK, full-length recombinant) (assay: Btk enzyme activity assay, Method A: IMAP-FP). Conditions: 5 μM ATP, 60 minute compound & enzyme incubation.
Type: biochemical
Description: Inhibition of kinase activity can be measured using the Immobilized Metal Assay for Phosphochemicals (IMAP) assay. IMAP is a homogeneous fluorescence polarization (FP) assay based on affinity capture of phosphorylated peptide substrates. IMAP uses fluorescein-labeled peptide substrates that, upon phosphorylation by a protein kinase, bind to so-called IMAP nanoparticles, which are derivatized with trivalent metal complexes. Binding causes a change in the rate of the molecular motion of the peptide, and results in an increase in the FP value observed for the fluorescein label attached to the substrate peptide (Gaudet et al. A homogeneous fluorescence polarization assay adaptable for a range of protein serine/threonine and tyrosine kinases. J. Biomol. Screen (2003) 8, 164-175).
BTK enzymatic activity was determined in an IMAP-FP assay (Immobilized Metal ion Affinity-based fluorescence Polarization; Molecular Devices). […] Plates were read on Packard microplate reader after 60 minutes binding equilibration using Fluorescence Polarization protocol. Specifically, fluorescence at 535 nm is measured using emission filters oriented both parallel and perpendicular to the polarized excitation filter. This allows detection of changes in Fluorescence Polarization due to binding of the phosphorylated substrate peptide to the beads. […]

Row | IC50 [nM] | Structure (SMILES)
13 | 7.2 | Cn1ncc2c1CCCC2(O)c1nc(-c2ccc(C(=O)Nc3cc(C(F)(F)F)ccn3)cc2)c2c(N)nccn12 (centres unmarked) [Example 1, 4-(8-amino-3-(4-hydroxy-1-methyl-4,5,6,7-tetrahydro-1H-indazol-4-yl)imidazo[1,5-a]pyrazin-1-yl)-N-(4-(trifluoromethyl)pyridin-2-yl)benzamide]
14 | 12 | CCn1ncc2c1CCCC2(O)c1nc(-c2ccc(C(=O)Nc3cc(C(F)(F)F)ccn3)cc2)c2c(N)nccn12 (centres unmarked) [Example 4, 4-(8-amino-3-(1-ethyl-4-hydroxy-4,5,6,7-tetrahydro-1H-indazol-4-yl)imidazo[1,5-a]pyrazin-1-yl)-N-(4-(trifluoromethyl)pyridin-2-yl)benzamide]

From US9446130B2, “BTK inhibitors” (MERCK SHARP & DOHME CORP., priority 2013, dated 2016)
